# Tests used:
# Type in all cases: in vivo, Kunming mice
# MPTP model mice [1] = assay: Pole-climbing test in MPTP model mice; settings: intragastric for 2 weeks after modeling, 30 mg/kg (rasagiline 1 mg/kg), vs. MPTP group, n=6, FIG. 2
# Protocol: Administration method: the mice were randomly divided into 6 groups with 6 mice in each group, i.e., the control group, the MPTP model group (intraperitoneal injection of MPTP, 30 mg/kg, established after five days of administration and two days of rest), the MPTP+Fructus lycii extract (water extraction) group (administration after modeling, 30 mg/kg, intragastric administration for two weeks), the MPTP+Fructus lycii polysaccharide group (administration after modeling, 30 mg/kg, intragastric administration for two weeks), the MPTP+Fructus lycii glucopeptide group (administration after modeling, 30 mg/kg, intragastric administration for 2 weeks), the MPTP+rasagiline group (administration after modeling, 1 mg/kg, intragastric administration for 2 weeks). Instruction: the pole-climbing test is a behavioral test to record the time difference of mice on the pole so as to detect the limb movement coordination of mice. The whole experiment was completed in a quiet and dark environment. The pole was composed of an iron frame with a diameter of 1 cm and a height of 60 cm and a small ball with a diameter of 1.5 cm fixed on its top. […] The time required for the mice to climb to the bottom from the beginning was recorded. If the time exceeded 1 minute, it was recorded as 1 minute. Each mouse was tested for 5 rounds each time, and the results were expressed as the average values.
# MPTP model mice [2] = assay: Rotarod test in MPTP model mice; settings: intragastric for 2 weeks after modeling, 30 mg/kg (rasagiline 1 mg/kg), vs. MPTP group, n=6, FIG. 3
# Protocol: Instruction: rotarod test was used to detect the motor coordination ability of mice by recording the time of the mice on the cylindrical rotarod using the rotarod fatigue apparatus. The test was conducted in a quiet and dark environment. The rotarod fatigue apparatus can accommodate five mice at a time for the test. Each mouse has a separate track, with a connected computer software for recording the time when the mouse falls. When the mouse rotates passively with the rotarod for more than two consecutive circles, the timing should also be stopped. Before restraint stress, the mice were trained for a week in advance to adapt, and each mouse was trained for three rounds every time. After restraint stress, the mice were detected once a week, and the parameter was set at a speed ramp from 5 r/min to 30 r/min at a constant rate within 5 min. The time of the mice on the rotarod within 5 min was recorded, and the time exceeding 5 min was recorded as 5 min. Each mouse was detected for 3 rounds each time, and the average value was calculated. The test interval of each group of mice was at least 30 min. Before each change of the mice, the apparatus was cleaned with 75% ethanol to remove the odor before the next group of test.
# MPTP model mice [3] = assay: CatWalk gait analysis in MPTP model mice; settings: intragastric for 2 weeks after modeling, 30 mg/kg (rasagiline 1 mg/kg), vs. MPTP group, n=6, FIG. 4-7
# Text: Instruction: CatWalk gait analysis is a system for analyzing the gait of rodents, including the balance maintenance ability, the use of limbs and the stability analysis of movement state and gait. The main accessories include built-in red LED light panel and green fluorescent glass panel, high-frequency camera under the glass panel, image transmission system and computer software and hardware. Before inspection, the camera height will be adjusted to 60 cm, the effective length and width of the runway will be delimited in the software, and the gain of the camera will be set to 28.12 dB. The process of each mouse passing through the glass plate smoothly was recorded at room temperature, and the longest time was set to 10 s, that is, the data was valid if the mouse passed through the set distance within 10 s. The principle of recording is that the paw prints of mice are illuminated by the fluorescent reflection of the fluorescent lamp in the glass panel, captured by the camera below and transmitted to the computer, and the recorded video data are statistically analyzed by the software of the system. According to the location of paw print, the pressure of paw on the glass panel, the distance between different paw prints, the velocity of mouse gait and the regularity of gait, the gait of mice was qualitatively and quantitatively analyzed. […]
compound,measurement,setting,value
"C#CCN[C@@H]1CCc2ccccc21 [rasagiline, Rasagiline]",pole-climbing time (time to climb from top to bottom of the pole),MPTP model mice [1],significantly shorten the pole-climbing time
same,on-rod time (anti-fatigue time on the rotarod),MPTP model mice [2],significantly restore the on-rod time
same,"gait behavior (average speed, maximum variation, cadence, number of steps)",MPTP model mice [3],significantly restore the gait behavior disorder

# Reference: patent US20250000940A1, “USE OF FRUCTUS LYCII GLUCOPEPTIDE” (NINGXIA QITAI TECHNOLOGY CO., LTD., priority 2021, published 2025)
